The subject of data set [1] is PKLR. The data set can be described thus: PKLR protein level by western blot in steatosis-induced HepG2, 7-day drug treatment. The class given is cell-based. The settings on record: steatosis-induced HepG2, 7 days of drug treatment, P<0.05, FIG. 2B. The protocol: (§1) WT HepG2 was included in this study and cultured by Roswell Park Memorial Institute (RPMI, R2405, Sigma Aldrich) 1640 Medium with 10% fetal bovine serum (FBS) and 1% penicillin-streptomycin (PS). To induce a steatosis model into WT HepG2 cells, high glucose Dulbecco's Modified Eagle Media (DMEM, D0822/D5671, Sigma-Aldrich) containing 10% FBS and 1% PS was used as medium for one week, together with 10 μg/mL insulin and 10 μM T0901317. All of cells were incubated in the incubator with 5% CO2 and 37° C. (Thermo SCIENTIFIC). Fresh medium was provided every two days.
(§2) As for drug-screening, different numbers of HepG2 cells were seeded for distinct experiments. More in details, 40,000 cells and 500,000 cells were used for 2-day-drug treatment in 96-well-plate and 6-well plate, respectively, while 80,000 cells and 300,000 cells were used for one-week drug treatment in 96-well plate and 6-well plate, respectively. Detailed drug dosages could be found in FIG. 5. Fresh medium was provided every two days.
(§3) Protein content levels were detected by western blot. After the respective treatment of drugs, the cell pellets were lysed in cell lytic M, followed by protein extraction from supernatant (10 min, 13,000r/min centrifuge). Extracted cell lysate was stored in −20° C. Proteins were quantified through Bovine albumin serum (BAS) standard curve with protein assay dye reagent (BIO-RAD). The proteins were separated by SDS-PAGE with 100v in 90 min by mini-protein TGX precast gels (4-15%, 15 wells, 15 μl/well, BIO-RAD), and then transfer to Mini PVDF transfer package through transfer system (Transfer-Turbo, BIO-RAD). After 30 min blocking with 5% skim milk in cold room (4° C.) and washing with TBST, membrane was cut by the size of interested proteins. Primary antibodies were added into the corresponding membrane sections for overnight binding. Then the membranes were washed with TBST, and the secondary antibodies were incubated for 1 h in cold room. The following antibody were used: (Goat pAb to Rb lg, ab205718, abcam; Rb pAb to beta-actin, ab8227, abcam; anti-pklr, HPA006653, SIGMA; Rb pAb to fatty acid synthase, ab99539, abcam). The bindings were imaged by immunostaining and machine (ImageQuant LAS 500). All antibodies were purchased from Abcam online, and βactin was used as global normalized protein. After measurement, the strength of signal for each protein was quantified by ImageJ. The background noise was removed, and all results were normalized by the levels of β-actin.
(§4) To further analyse the effect of these drugs on lipid accumulation via the DNL pathway, steatosis was induced to HepG2 by treating the cells with high glucose medium (DMEM), insulin and T0901317 (Hansmannel et al., 2006). […] Therefore, the effects of these two drugs on the de novo synthesis of lipids were investigated based on the steatosis-induced HepG2 model. […] Taken together, it was shown that BX-912 and JNK-IN-5A effectively alleviate the protein expression of PKLR and FASN as well as TG levels in HepG2 cell lines, and thus, it was decided to perform in vivo evaluations to test the effect of these two drugs.

Data set [2] relates to steatosis-induced HepG2. Kind of data set: Triglyceride assay in steatosis-induced HepG2. The settings on record: steatosis-induced HepG2, 7 days of drug treatment, FIG. 2D. It counts as cell-based. The protocol:
All of cells were incubated in the incubator with 5% CO2 and 37° C. (Thermo […]). Fresh medium was provided every two days.

In data set [3] the test system is Sprague Dawley male rats. The data set can be described thus: In vivo biosafety study: micronucleus frequencies (MNPCEs) in blood. Further details: species or system rat. The settings on record: 30 mg/kg oral, 7 days, CHOW, p>0.05. The protocol:
In vivo biosafety studies. Healthy Sprague Dawley male rats (12 weeks old, 250-280 g) were obtained from Atatürk University Experimental Research Center (ATADEM, Erzurum Turkey) and housed under standard environmental conditions (temperature 20° C.-25° C., humidity 50±20% and 12-hour light/dark diurnal cycle). Food and water were available ad libitum. Rats were randomly separated into one control group and two experimental groups (30 mg/kg/day BX-912 or JNK-IN-5A, n=5). BX-912 and JNK-IN-5A were dissolved in DMSO and orally administrated using oral gavage for 7 days. The control group were received the same amount of vehicle solution only.
After 7 days, rats were anaesthetized, and blood samples were collected from the abdominal aorta for biochemical and haematological analysis. The plasma was separated and stored at −80° C. for further analysis. Major organs such as heart, kidney, liver, muscle, adipose, intestine (duodenum, ileum, jejunum), pancreas, colon, and stomach were collected from all the animals for further analysis. Selected organs were fixed in 10% neutral buffered formalin for histopathological examination.
To evaluate the potential toxicity of BX-912 and JNK-IN-5A in animals, three groups of 12-week-old rats (n=5) were raised. The first group was fed with CHOW (Ctrl) for seven days. The second group was fed with CHOW plus BX-912 (30 mg/kg) for seven days. […]

The subject of data set [4] is FASN. Kind of data set: FASN protein level by western blot in steatosis-induced HepG2, 7-day drug treatment. The conditions noted are these: steatosis-induced HepG2, 7 days of drug treatment, P<0.05, FIG. 2C. The class given is cell-based. The protocol:
as §1, §2, §3, §4

Consider two compounds from patent US20240366560A1, “SMALL MOLECULE TREATMENT OF FATTY LIVER DISEASE AND HCC” (ScandiEdge Therapeutics AB, priority 2021, published 2024).

Structures are written as SMILES.

Consider `O=C(Nc1cccc(Nc2ncc(Br)c(NCCc3cnc[nH]3)n2)c1)N1CCCC1` [BX-912, N-[3-[[5-bromo-4-[[2-(1H-imidazol-5-yl)ethyl]amino]-2-pyrimidinyl]amino]phenyl]-1-pyrrolidinecarboxamide], for which, in data set [1], the “protein expression level of PKLR” value was “significantly decreased”. Further, the “content of TGs (normalized by cell viability)” value in data set [2] is on record as “significantly decreased”. Further, in data set [3], the “frequencies of MNPCEs compared to Ctrl animals” value was “not statistically different”. Also, the “protein expression level of FASN” value in data set [4] was “significantly reduced”.

As for `N#Cc1c(NC(=O)c2cccc3ccccc23)sc2c1CCCC2` [JNK-IN-5A, N-(3-cyano-4,5,6,7-tetrahydrobenzo [b]thien-2-yl)-1-naphthalenecarboxamide], in data set [1], the “protein expression level of PKLR” value is “significantly decreased”. For the same compound, the “content of TGs (normalized by cell viability)” value in data set [2] was “significantly decreased”. In addition, the “frequencies of MNPCEs compared to Ctrl animals” value in data set [3] is “not statistically different”. Further, the “protein expression level of FASN” value in data set [4] is listed as “significantly reduced”.
